Biological target: Gamma-aminobutyric acid receptor subunit alpha-1/beta-2/gamma-2 (Rattus norvegicus, UniProt P18508+P62813+P63138)
Experiment: [35S]TBPS Binding Assay
Details: pH 7.4; 25 °C
Description: Briefly, aliquots of membrane solution (0.5 mg/mL final protein concentration in assay) were incubated with 5 μM GABA, 2 nM [35S]TBPS (45−120 Ci/mmol), and 5 μL aliquots of steroid in DMSO solution (final assay concentrations ranged from 1 nM to 10 μM), and brought to a final volume of 1 mL with 200 mM NaCl, 50 mM potassium phosphate buffer, pH 7.4. […] Assay tubes were incubated for 2 h at room temperature.

Sequence of Gamma-aminobutyric acid receptor subunit alpha-1/beta-2/gamma-2 (P62813 whole entry): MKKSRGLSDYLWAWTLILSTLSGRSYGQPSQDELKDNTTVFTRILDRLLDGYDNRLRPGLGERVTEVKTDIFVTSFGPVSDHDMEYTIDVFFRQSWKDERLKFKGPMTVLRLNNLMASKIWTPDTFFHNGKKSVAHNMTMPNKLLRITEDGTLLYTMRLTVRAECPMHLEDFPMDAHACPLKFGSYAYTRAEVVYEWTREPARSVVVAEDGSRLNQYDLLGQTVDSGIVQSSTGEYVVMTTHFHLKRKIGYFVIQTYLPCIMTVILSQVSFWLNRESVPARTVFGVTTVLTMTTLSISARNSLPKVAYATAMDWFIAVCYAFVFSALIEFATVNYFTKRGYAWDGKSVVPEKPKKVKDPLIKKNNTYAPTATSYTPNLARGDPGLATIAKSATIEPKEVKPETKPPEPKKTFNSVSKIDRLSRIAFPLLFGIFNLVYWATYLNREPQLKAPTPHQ
Sequence of Gamma-aminobutyric acid receptor subunit alpha-1/beta-2/gamma-2 (P63138 whole entry): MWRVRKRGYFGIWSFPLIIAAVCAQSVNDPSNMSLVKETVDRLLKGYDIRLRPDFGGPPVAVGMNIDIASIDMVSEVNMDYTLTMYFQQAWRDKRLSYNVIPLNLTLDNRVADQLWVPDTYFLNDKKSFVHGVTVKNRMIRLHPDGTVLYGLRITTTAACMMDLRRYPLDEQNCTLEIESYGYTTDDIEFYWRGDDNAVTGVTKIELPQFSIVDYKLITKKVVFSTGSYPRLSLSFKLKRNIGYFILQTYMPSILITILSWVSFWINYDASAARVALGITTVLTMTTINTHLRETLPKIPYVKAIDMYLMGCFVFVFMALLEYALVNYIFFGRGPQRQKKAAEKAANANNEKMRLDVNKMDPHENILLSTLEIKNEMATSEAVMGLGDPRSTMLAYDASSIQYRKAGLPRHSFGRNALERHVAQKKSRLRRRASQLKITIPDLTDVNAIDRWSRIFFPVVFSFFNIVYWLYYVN
Sequence of Gamma-aminobutyric acid receptor subunit alpha-1/beta-2/gamma-2 (P18508 whole entry): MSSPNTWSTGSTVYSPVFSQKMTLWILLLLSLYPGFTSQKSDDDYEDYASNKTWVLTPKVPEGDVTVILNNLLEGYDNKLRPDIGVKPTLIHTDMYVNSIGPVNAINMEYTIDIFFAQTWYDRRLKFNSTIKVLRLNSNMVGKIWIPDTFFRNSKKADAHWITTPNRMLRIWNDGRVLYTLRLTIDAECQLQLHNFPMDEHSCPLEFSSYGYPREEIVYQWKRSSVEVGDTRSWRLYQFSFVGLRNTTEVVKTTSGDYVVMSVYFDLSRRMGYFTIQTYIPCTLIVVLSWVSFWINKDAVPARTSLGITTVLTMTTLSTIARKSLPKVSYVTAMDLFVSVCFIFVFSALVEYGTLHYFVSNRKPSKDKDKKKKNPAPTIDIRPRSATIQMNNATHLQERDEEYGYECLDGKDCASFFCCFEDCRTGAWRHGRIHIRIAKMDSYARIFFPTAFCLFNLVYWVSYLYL

| SMILES | IC50 [nM] |
| --- | --- |
| C[C@]12CC[C@@H](O)C[C@@H]1CC[C@@H]1[C@@H]2C(=O)C[C@]2(C)C(C=O)=CC[C@@H]12 [US9388210, 5a] | 997 |
| C[C@]12CC[C@@H](O)C[C@@H]1CC[C@H]1[C@@H]3CC[C@H](C=O)[C@@]3(C)CC(=O)[C@@H]12 [US9388210, 5b] | 770 |

From BindingDB's records for patent US9388210 (Washington University, 2016)
